# PMC11643077, “Synthesis of 1,2,4-Oxadiazin-5(6H)-One Derivatives and Their Biological Investigation as Monoamine Oxidase Inhibitors” (Molecules, 2024)
# How the values were obtained:
# MAO-B = target: T1, MAO-B (Homo sapiens, UniProt P27338); experiment: MAO-B inhibition, recombinant human enzyme, kynuramine substrate, fluorometric end-point; assay type: biochemical; settings: mean ± SD of triplicate, racemic mixtures, NI = no inhibition at 100 µM
# T1 construct: purchased Merck
# T1 sequence (P27338 1-520): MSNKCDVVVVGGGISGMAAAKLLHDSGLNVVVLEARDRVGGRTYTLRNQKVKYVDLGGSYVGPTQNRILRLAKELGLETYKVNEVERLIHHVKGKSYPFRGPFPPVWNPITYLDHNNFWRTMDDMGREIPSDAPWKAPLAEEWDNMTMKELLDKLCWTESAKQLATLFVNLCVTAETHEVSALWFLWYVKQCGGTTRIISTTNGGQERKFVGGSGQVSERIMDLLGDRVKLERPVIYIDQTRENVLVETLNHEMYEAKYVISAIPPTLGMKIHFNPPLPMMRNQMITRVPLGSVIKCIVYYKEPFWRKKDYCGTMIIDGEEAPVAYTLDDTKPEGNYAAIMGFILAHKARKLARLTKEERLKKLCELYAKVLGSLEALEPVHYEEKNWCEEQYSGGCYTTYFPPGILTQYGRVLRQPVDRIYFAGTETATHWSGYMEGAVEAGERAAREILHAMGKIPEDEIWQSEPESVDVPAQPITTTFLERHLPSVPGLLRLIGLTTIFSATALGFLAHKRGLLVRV
# Experimental: (§1) The in vitro inhibition studies were carried out according to the published procedure, and the inhibition potencies were expressed as the IC50 values (Figure 2). […] A variety of C3 substituents were explored in this study, which included the phenyl, benzyl and 5-methylthiophen-2-yl moieties, while different substituents on the phenyl (e.g., CH3, OCH3, Cl, Br, F, CF3, OCF3, NO2, PhO) were considered.
# (§2) The inhibition potencies of the 1,2,4-oxadiazin-5(6H)-one derivatives were determined using commercially available recombinant human MAO-A and MAO-B (Merck) according to the published procedure. Stock solutions of all compounds were prepared in DMSO and added to the enzyme reactions to yield a final concentration of 4% DMSO. […] Kynuramine was used as enzyme substrate for both MAO isoforms and was oxidized to ultimately form 4-hydroxyquinoline, which is a fluorescent metabolite. The concentrations of 4-hydroxyquinoline in the reactions were measured at end-point by fluorescence spectrometry (λex = 310 nm; λem = 400 nm). Using this approach, the rates of kynuramine oxidation by MAO were measured in the presence of different concentrations of the test inhibitors (0.003–100 µM) as well as in the absence of inhibitor. […] IC50 values were estimated from these plots and were reported as the mean ± SD of triplicate determinations.
# MAO-A [1] = target: T2, MAO-A (Homo sapiens, UniProt P21397); experiment: MAO-A inhibition, recombinant human enzyme, kynuramine substrate, fluorometric end-point; assay type: biochemical; settings: mean ± SD of triplicate, racemic mixtures, NI = no inhibition at 100 µM
# T2 construct: purchased Merck
# T2 sequence (P21397 1-527): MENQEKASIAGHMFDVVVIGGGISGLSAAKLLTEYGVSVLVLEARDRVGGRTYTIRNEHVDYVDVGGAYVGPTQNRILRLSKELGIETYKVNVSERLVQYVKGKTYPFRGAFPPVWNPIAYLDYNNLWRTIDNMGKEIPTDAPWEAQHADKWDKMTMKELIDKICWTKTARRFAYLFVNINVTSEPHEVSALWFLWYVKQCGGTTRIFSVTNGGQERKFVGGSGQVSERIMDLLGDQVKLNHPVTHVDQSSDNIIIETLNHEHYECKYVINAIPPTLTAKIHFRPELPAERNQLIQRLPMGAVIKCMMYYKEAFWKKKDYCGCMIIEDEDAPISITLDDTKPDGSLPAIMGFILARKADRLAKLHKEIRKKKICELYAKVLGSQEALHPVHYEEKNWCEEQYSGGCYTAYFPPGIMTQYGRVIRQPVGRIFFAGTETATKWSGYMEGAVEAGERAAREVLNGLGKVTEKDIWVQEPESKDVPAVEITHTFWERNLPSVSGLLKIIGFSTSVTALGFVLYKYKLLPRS
# Experimental: as §1, §2
# MAO-A [2] = target: T2, MAO-A; experiment: Mode of MAO-A inhibition, Lineweaver-Burk plots; assay type: biochemical
# Experimental: To investigate the mode of MAO inhibition, Lineweaver–Burk plots were constructed for the two inhibitors of the respective MAO isoforms, 3f and 5f. For each inhibitor, six plots were constructed using a range of eight substrate concentrations (15–250 µM) for each plot. The inhibitor concentrations were selected to bracket the IC50 values. […] For each isoform, a plot was also constructed in the absence of the inhibitor.
# To investigate the mode of inhibition, Lineweaver–Burk plots were constructed. A set of six plots were constructed for each test inhibitor using five inhibitor concentrations that bracketed the IC50 value as well as one plot in the absence of inhibitor. For each line, eight different concentrations of kynuramine (15–250 µM) were used. Subsequently, the slopes of the Lineweaver–Burk plots were plotted versus inhibitor concentration, and the Ki values were estimated from the x-intercept (Ki = −x-intercept).
IC50 (MAO-B),IC50 (MAO-A [1]),melting point,mode of MAO-A inhibition (MAO-A [2]; Lineweaver-Burk plots),"Ki (MAO-A [2]; from replot of Lineweaver-Burk slopes versus inhibitor concentration (1 to 5 µM), kynuramine 15–250 µM)",Structure (SMILES)
33.9 ± 1.44 µM,40.7 ± 8.83 µM,,,,COC(=O)CC1ON=C(c2ccc(C)s2)NC1=O (centres unmarked) [Compound 6d]
46.3 ± 17.8 µM,> 100 µM,,,,O=C1NC(c2ccc(C(F)(F)F)cc2)=NOC1Cc1nc(-c2ccc(C(F)(F)F)cc2)no1 (centres unmarked) [Compound 7d]
> 100 µM,> 100 µM,,,,O=C(O)CC1ON=C(c2ccc(C(F)(F)F)cc2)NC1=O (centres unmarked) [Compound 8d]
14.3 ± 3.27 µM,> 100 µM,,,,O=C1NC(c2ccc(F)cc2)=NOC1Cc1nc(-c2ccc(F)cc2)no1 (centres unmarked) [Compound 7b]
> 100 µM,> 100 µM,208 to 211 °C,,,"O=C(O)CC1ON=C(c2ccc(OC(F)(F)F)cc2)NC1=O (centres unmarked) [Compound 8g, 2-(5-Oxo-3-(4-(trifluoromethoxy)phenyl)-5,6-dihydro-4H-1,2,4-oxadiazin-6-yl)acetic acid]"
> 100 µM,> 100 µM,,,,COC(=O)CC1ON=C(c2ccccc2)NC1=O (centres unmarked) [Compound 6a]
62.2 ± 15.7 µM,> 100 µM,,,,O=C(O)CC1ON=C(c2cc(Cl)cc(Cl)c2)NC1=O (centres unmarked) [Compound 8e]
> 100 µM,> 100 µM,,,,COc1ccc(C2=NOC(CC(=O)O)C(=O)N2)cc1 (centres unmarked) [Compound 8c]
22.9 ± 5.27 µM,> 100 µM,,,,COC(=O)CC1ON=C(c2ccc(C(F)(F)F)cc2)NC1=O (centres unmarked) [Compound 6f]
23.6 ± 1.11 µM,34.2 ± 6.15 µM,,,,COC(=O)CC1ON=C(c2ccccn2)NC1=O (centres unmarked) [Compound 6b]
> 100 µM,12.7 ± 1.34 µM,,,,O=C(O)CC1ON=C(c2ccc(Oc3ccccc3)cc2)NC1=O (centres unmarked) [Compound 8b]
52.3 ± 12.7 µM,> 100 µM,,,,COC(=O)CC1ON=C(c2ccc([N+](=O)[O-])cc2)NC1=O (centres unmarked) [Compound 6c]
,> 100 µM,,,,Cc1ccc(C2=NOC(CC(=O)O)C(=O)N2)cc1 (centres unmarked) [Compound 8a]
> 100 µM,> 100 µM,211 to 212 °C,,,"O=C(O)CC1ON=C(c2cccc(Cl)c2)NC1=O (centres unmarked) [Compound 8f, 2-(3-(3-Chlorophenyl)-5-oxo-5,6-dihydro-4H-1,2,4-oxadiazin-6-yl)acetic acid]"
> 100 µM,> 100 µM,,,,COC(=O)CC1ON=C(c2ccncc2)NC1=O (centres unmarked) [Compound 6e]
,54.3 ± 14.3 µM,,,,Cc1ccc(C2=NOC(Cc3nc(-c4ccc(C)cc4)no3)C(=O)N2)cc1 (centres unmarked) [Compound 7a]

# The next lines start with the compound.
Structure (SMILES),IC50 (MAO-B),IC50 (MAO-A [1]),melting point,mode of MAO-A inhibition (MAO-A [2]; Lineweaver-Burk plots),"Ki (MAO-A [2]; from replot of Lineweaver-Burk slopes versus inhibitor concentration (1 to 5 µM), kynuramine 15–250 µM)"
"COc1ccc(C2=NOCC(=O)N2)cc1 [Compound 3e, 3-(4-Methoxyphenyl)-4H-1,2,4-oxadiazin-5(6H)-one]",37.6 ± 9.47 µM,27.1 ± 3.98 µM,188 to 190 °C,,
"CCC1ON=C(c2ccc(F)cc2)NC1=O (centres unmarked) [Compound 5h, 6-Ethyl-3-(4-fluorophenyl)-4H-1,2,4-oxadiazin-5(6H)-one]",30.7 ± 2.02 µM,93 ± 3.23 µM,153 to 155 °C,,
"CCC1ON=C(Cc2ccccc2)NC1=O (centres unmarked) [Compound 5i, 3-Benzyl-6-ethyl-4H-1,2,4-oxadiazin-5(6H)-one]",> 100 µM,> 100 µM,97 to 99 °C,,
O=C1NC(c2ccc([N+](=O)[O-])cc2)=NOC1Cc1nc(-c2ccc([N+](=O)[O-])cc2)no1 (centres unmarked) [Compound 7c],0.371 ± 0.037 µM,12.9 ± 0.014 µM,,,
"O=C1CON=C(c2ccc(Br)cc2)N1 [Compound 3b, 3-(4-Bromophenyl)-4H-1,2,4-oxadiazin-5(6H)-one]",13.6 ± 6.63 µM,14.2 ± 0.94 µM,,,
"COc1ccc(Oc2ccc(C3=NOCC(=O)N3)cc2)cc1 [Compound 3f, 3-(4-(4-Methoxyphenoxy)phenyl)-4H-1,2,4-oxadiazin-5(6H)-one]",3.98 ± 0.518 µM,3.75 ± 0.212 µM,,competitive inhibition,1.3 µM
"O=C1CON=C(c2ccc([N+](=O)[O-])cc2)N1 [Compound 3c, 3-(4-Nitrophenyl)-4H-1,2,4-oxadiazin-5(6H)-one]",24.4 ± 2.48 µM,17.3 ± 0.594 µM,248 to 250 °C,,
"CCC1ON=C(c2ccc(C)s2)NC1=O (centres unmarked) [Compound 5d, 6-Ethyl-3-(5-methylthiophen-2-yl)-4H-1,2,4-oxadiazin-5(6H)-one]",6.14 ± 0.137 µM,58.1 ± 5.28 µM,151 to 153 °C,,
"CCC1ON=C(c2ccccc2)NC1=O (centres unmarked) [Compound 5g, 6-Ethyl-3-phenyl-4H-1,2,4-oxadiazin-5(6H)-one]",> 100 µM,> 100 µM,,,
"CCC1ON=C(c2ccc([N+](=O)[O-])cc2)NC1=O (centres unmarked) [Compound 5c, 6-Ethyl-3-(4-nitrophenyl)-4H-1,2,4-oxadiazin-5(6H)-one]",21 ± 4.09 µM,57.9 ± 9.84 µM,177 to 179 °C,,
"Cc1ccc(C2=NOC(C)C(=O)N2)cc1 (centres unmarked) [Compound 4a, 6-Methyl-3-(4-methylphenyl)-4H-1,2,4-oxadiazin-5(6H)-one]",24.5 ± 0.198 µM,67 ± 0.007 µM,,,
"Cc1ccc(C2=NOC(C)C(=O)N2)s1 (centres unmarked) [Compound 4d, 6-Methyl-3-(5-methylthiophen-2-yl)-4H-1,2,4-oxadiazin-5(6H)-one]",22.3 ± 0.94 µM,46.2 ± 9.22 µM,167 to 169 °C,,
"CC1ON=C(c2ccc(Br)cc2)NC1=O (centres unmarked) [Compound 4b, 3-(4-Bromophenyl)-6-methyl-4H-1,2,4-oxadiazin-5(6H)-one]",27.1 ± 3.37 µM,37.4 ± 4.18 µM,,,
"CC1ON=C(c2ccc([N+](=O)[O-])cc2)NC1=O (centres unmarked) [Compound 4c, 6-Methyl-3-(4-nitrophenyl)-4H-1,2,4-oxadiazin-5(6H)-one]",14.6 ± 0.092 µM,58.5 ± 4.17 µM,247 to 249 °C,,
"Cc1ccc(C2=NOCC(=O)N2)cc1 [Compound 3a, 3-(4-Methylphenyl)-4H-1,2,4-oxadiazin-5(6H)-one]",37.2 ± 0.071 µM,36.8 ± 1.83 µM,140 to 141 °C,,
"CCC1ON=C(c2ccc(Br)cc2)NC1=O (centres unmarked) [Compound 5b, 3-(4-Bromophenyl)-6-ethyl-4H-1,2,4-oxadiazin-5(6H)-one]",5.11 ± 0.308 µM,35.4 ± 1.54 µM,,,
"CCC1ON=C(c2ccc(OC)cc2)NC1=O (centres unmarked) [Compound 5e, 6-Ethyl-3-(4-methoxyphenyl)-4H-1,2,4-oxadiazin-5(6H)-one]",6.22 ± 0.596 µM,44.1 ± 6.05 µM,139 to 141 °C,,
"Cc1ccc(C2=NOCC(=O)N2)s1 [Compound 3d, 3-(5-Methylthiophen-2-yl)-4H-1,2,4-oxadiazin-5(6H)-one]",16.6 ± 1.67 µM,34.6 ± 5.47 µM,216 to 218 °C,,
"CCC1ON=C(c2ccc(C)cc2)NC1=O (centres unmarked) [Compound 5a, 6-Ethyl-3-(4-methylphenyl)-4H-1,2,4-oxadiazin-5(6H)-one]",4.28 ± 0.318 µM,> 100 µM,,,
"COc1ccc(C2=NOC(C)C(=O)N2)cc1 (centres unmarked) [Compound 4e, 3-(4-Methoxyphenyl)-6-methyl-4H-1,2,4-oxadiazin-5(6H)-one]",20 ± 0.643 µM,51.2 ± 15.1 µM,,,
"COc1ccc2c(c1)[nH]c1c(C)nccc12 [Harmine, reference compound]",> 100 µM,,,,
